Read-outs that look alike come from different tables or passages of the source.
What was measured:
[1] = biological target: T1, LATS1 (Homo sapiens, UniProt O95835); experiment: in vitro Lats kinase assay (enzymological assay); format: biochemical; details: for true inhibitory activities: implied, Lats concentration 555 pM in the assay, affinities at or below lower limit of accurate quantification
T1 sequence (O95835 589-1130 limits assumed): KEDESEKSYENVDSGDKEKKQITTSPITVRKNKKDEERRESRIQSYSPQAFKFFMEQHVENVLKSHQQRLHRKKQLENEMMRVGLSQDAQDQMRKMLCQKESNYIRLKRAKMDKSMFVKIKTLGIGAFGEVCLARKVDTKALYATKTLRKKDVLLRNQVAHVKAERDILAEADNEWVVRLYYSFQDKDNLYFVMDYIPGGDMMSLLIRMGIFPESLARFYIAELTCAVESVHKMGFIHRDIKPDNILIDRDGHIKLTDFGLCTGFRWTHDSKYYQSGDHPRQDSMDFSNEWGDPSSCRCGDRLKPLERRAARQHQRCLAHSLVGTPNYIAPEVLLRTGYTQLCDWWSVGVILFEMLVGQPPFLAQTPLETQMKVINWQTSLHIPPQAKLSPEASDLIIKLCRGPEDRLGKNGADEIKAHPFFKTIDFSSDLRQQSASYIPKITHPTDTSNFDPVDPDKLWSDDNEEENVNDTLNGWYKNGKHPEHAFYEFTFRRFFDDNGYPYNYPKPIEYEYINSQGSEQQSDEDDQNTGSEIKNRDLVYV

[2] = system: Yap phosphorylation in HEK293A cells; experiment: cellular assay of Yap phosphorylation (ratio of pYap to tYap in homogenates from treated cells); format: cell-based; details: HEK293-A
[3] = human liver microsome stability; format: in vitro ADME; set-up: unit not given here
Source text: (§1) Fig. 1. […] HLM, human liver microsome; MLM, mouse liver microsome.

[4] = mouse liver microsome stability; format: in vitro ADME; set-up: unit not given here
Source text: as §1

[5] = system: Yap phosphorylation in human retinal organoids; experiment: Yap phosphorylation in human retinal organoids (immunoblot pYap/tYap); format: cell-based; details: 3 μM, 24 h, vs DMSO controls
Source text: (§2) Fig. 2. […] Each sample includes five organoids; β-actin serves as a loading control.
(§3) The supernatants were filtered and the lysates
(§4) The proteins were transferred to a PVDF
(§5) The extent of proliferation was […]

[6] = system: Müller glia in human retinal organoids; experiment: proliferation of Müller glia in human retinal organoids (EdU/Sox9); format: cell-based
Source text: as §2, §3, §4, §5

[7] = system: Yap target genes; experiment: RNA sequencing of livers and hearts after injection; format: in vivo, mouse
[8] = system: cardiomyocytes; experiment: EdU incorporation in hearts of mice after right-ventricle cryolesion; format: in vivo, mouse
Source text: Cardiomyocytes ordinarily display little or no proliferation in mature mammals; instead, cardiac lesions in mice evoke scarring ([18]). To ascertain whether TDI-011536 restores a capacity for proliferation, we therefore examined the effect of systemic administration of the compound on damaged hearts in mice. After optimizing the surgical approach and establishing an appropriate dosage regime, we conducted eight experiments on male 8-week-old mice. In each instance, we used a metal probe cooled in liquid nitrogen to create a small cryolesion on the right ventricle ([18]).
In 33 images from 13 sections from the hearts of the two animals treated with TDI-011536 for 3 d, the average density of EdU labeling was 17.0 ± 3.5 μm^−2 (mean ± SD; SI Appendix, Table S3). By contrast, 28 images from 12 sections from controls yielded a labeling density of 5.6 ± 2.1 μm^−2 (mean ± SD; SI Appendix, Table S4). Because the values for the two control samples were not statistically different, those data were combined. […] Combining the experimental results as well yielded an overall significance of P < 10^−21 (SI Appendix, Fig. S5). […]
Cryolesioning of the murine right ventricle
Cardiac lesions were produced by a variant of a published method (6). Twenty minutes before surgery, an adult Swiss Webster mouse (Charles River Laboratories) four or eight weeks of age and of either sex was given buprenorphine subcutaneously at a dosage of 100 µg/kg for analgesia. The animal was anesthetized with 100 mg/kg of ketamine and 5 mg/kg of xylazine administered intraperitoneally in sterile water. The animal's mid-ventrum was shaved, chemically depilitated, and sterilized with a povidine-iodine swab. The area of the skin incision was infiltrated intradermally with 1 mg/kg of bupivacaine. Subsequent procedures were conducted beneath a surgical microscope and under sterile conditions in a HEPA-filtered, […]
With the animal supine on a thermostatted heating pad at 40 °C, an oblique, 15 mm-long incision was made from the xiphoid process parallel to the left lower costal margin and about 3 mm caudal to it. After the abdominal musculature and peritoneum had been transected with scissors in the same pattern, a miniature retractor was introduced to separate the two […]
sides of the incision. This approach exposed the upper margin of the liver and provided a view of the beating heart and the base of the left lung through the transparent diaphragm.
A cryolesion of the right ventricle was created with a round aluminum rod of mass 1.44 g secured to a plastic handle. A total of 76 mm in length, the rod was 3.2 mm in diameter over a distance of 59 mm at the base and 2.15 mm in diameter over the 17 mm at the tip. […]

[9] = tolerability of intraperitoneal dosing in mice
Source text: Assays of Lats kinase inhibition
assigned to treated and control groups.
Measurement of in vivo Lats inhibition

[10] = system: human retinal organoids; experiment: apoptosis in human retinal organoids (activated caspase 3 labeling); details: 10 μM TRULI or 3 μM TDI-011536
Source text: Control experiments relating to gene expression in retinal organoids. (A) Although
increased b-actin concentrations in mitotically active cells.
extensive proliferation of Müller cells marked with Sox2 (green), as signaled by labeling with
arrowheads). DAPI (blue) marks all the nuclei.

[11] = system: Yap phosphorylated at residue S127 (pYap); experiment: in vivo Lats inhibition: immunoblot of pYap and tYap in heart, liver and skin after intraperitoneal injection
Experimental: The compound was dissolved in Kolliphor HS 15, a vehicle that was also injected into control animals.
Engagement of target organs in vivo. (A) Immunoblots portray the amounts of Yap phosphorylated at residue S127 (pYap) and the total amounts of Yap (tYap) in the liver, heart, and skin. […] Glyceraldehyde 3-phosphate dehydrogenase (Gapdh) is included in each instance as a loading control.
We compared the original 200 mg/kg dose to injections of 100 mg/kg and 50 mg/kg.
procedures involved Swiss Webster mice (Charles River Laboratories) of both sexes and were conducted with the approval of Rockefeller University's Institutional Animal Care and Use Committee. Within each experiment, animals were age- and sex-matched and were randomly assigned to treated and control groups.
each day of treatment, an animal received a single intraperitoneal injection of the mixture to
In the principal experiment with a dosage of 100 mg/kg, or 20 mL/kg, a typical animal of mass 30 g received an injection of 0.6 mL of
Fifty milligrams of heart, liver, or skin tissue was lysed on ice in radioimmunoprecipitation-assay
After remaining on ice for 30 min, the samples were sonicated at low power for 2 min with 10 s exposures separated by 10 s interruptions, then
The supernatants were filtered and the lysates were immediately subjected to electrophoresis or stored at -80 °C.
A standard immunoblotting protocol was used. After lysates had been prepared, 10 mg
gradient bis-tris gel (NP0322, Thermo Fisher). The proteins were transferred to a PVDF
(ab8245, Abcam), which were reconstituted at a dilution of 1:1000 in blocking solution. After a
Secondary antibodies conjugated to horseradish peroxidase (W401B and W402B, Promega) were applied at a dilution of 1:10,000 in the same solution for one hour at room temperature
were acquired with an iBright FL1000 system (Invitrogen).

[12] = system: supporting cells of the internal ear; set-up: method as in PMID 34035288; details: in vitro; cited from earlier work
[13] = heart, 4 h after 200 mg/kg, ± SEM, three measurements
[14] = liver, 4 h after 200 mg/kg, ± SEM, three measurements

`Cc1cn(Cc2ccccc2)/c(=N/C(=O)c2c[nH]c3ncccc23)s1` [TDI-011214] showed an IC50 [1] of 224 nM and an EC50 ([2]; read-out: pYAP EC50) of 3140 nM.
In the case of `Cc1cs/c(=N\C(=O)c2c[nH]c3ncccc23)n1Cc1ccccc1` [TDI-011241], the IC50 [1] is reported as 0.96 nM, the true inhibitory activities [1] is reported as “lower than 1 nM” and the EC50 ([2]; read-out: pYAP EC50) is reported as 107 nM. The HLM activity [3] was 224 and the MLM activity [4] was 358.
In the case of `O=C(/N=c1\scc(CO)n1Cc1ccccc1)c1c[nH]c2ncccc12` [TDI-011536], the IC50 [1] is reported as 0.76 nM, the true inhibitory activities [1] is reported as “lower than 1 nM” and the EC50 ([2]; read-out: EC50 (mean ± SEM) for pYap/tYap) is reported as 40.8 ± 4.5 nM. The EC50 ([2]; HEK293A cells, value printed in Fig. 1A, read-out: pYAP EC50) was 10 nM, the HLM activity [3] was 36 and the MLM activity [4] was 72. The “reduction in Yap phosphorylation (ratio of pYap to tYap)” value [5] was ~80%, the “increase in the number of cells doubly positive for EdU and Sox9” value ([6]; 3 μM, 5 d treatment) was “tenfold” and the “Amotl2 expression, Heart, Treated” value [7, 13] was 11.53 ± 0.13 rLog. For the same compound, the “Ccn1 expression, Heart, Treated” value [7, 13] was 11.46 ± 0.29 rLog, the “Ccn2 expression, Heart, Treated” value [7, 13] was 14.02 ± 0.14 rLog and the “Myc expression, Heart, Treated” value [7, 13] was 8.15 ± 0.10 rLog. The “gene set-enrichment of genes characteristically activated upon Yap expression” value ([7]; liver and heart, 4 h after 200 mg/kg) was “significant enrichment”, the “damage in the organs examined (gene set-enrichment for inflammation and apoptosis terms)” value ([7]; liver and heart, 4 h treatment in vivo, 200 mg/kg) was “did not elicit significant damage” and the “Amotl2 expression, Liver, Treated” value [7, 14] was 10.21 ± 0.07 rLog. The “Ccn1 expression, Liver, Treated” value [7, 14] was 9.50 ± 0.27 rLog, the “Ccn2 expression, Liver, Treated” value [7, 14] was 10.55 ± 0.33 rLog and the “Myc expression, Liver, Treated” value [7, 14] was 10.67 ± 0.23 rLog. For the same compound, the “EdU-labeled cardiomyocytes at high magnification” value ([8]; 100 mg/kg i.p. two or three days after cryolesion) was “numerous labeled cardiomyocytes”, the “density of EdU-labeled cells, Specimen 1 (mean ± SD)” value ([8]; 14 images, treated animal) was 15.2 ± 3.0 mm-2 and the “density of EdU-labeled cells, Specimen 2 (mean ± SD)” value ([8]; 19 images, treated animal) was 18.3 ± 3.4 mm-2. The average density of EdU labeling (mean ± SD) ([8]; two animals treated for 3 d, 100 mg/kg i.p., 33 images from 13 sections, controls 5.6 ± 2.1) was 17 ± 3.5 mm^-2, the “survival and ill effects” value ([9]; both, Swiss Webster, mouse, in vivo, ip, 100 mg/kg, 2 wk) was “survival of all the mice for 2 wk with no apparent ill effects” and the “toxicity of systemic administration in young mice” value ([9]; young mice, intraperitoneal injection) was “lethality related to intraperitoneal injection”. For the same compound, the “apoptosis by labeling for activated caspase 3” value [10] was “little apoptosis”, the “pYap in liver, heart and skin” value ([11]; 50 mg/kg, after 4 h) was “no longer diminished pYap significantly in any organ” and the “dephosphorylation of Yap in the liver and heart” value ([11]; 100 mg/kg, through 4 h) was “maintained the dephosphorylation of Yap”. The “dephosphorylation of Yap in the skin” value ([11]; 100 mg/kg, through 4 h) was “failed to do so”, the pYap levels ([11]; 200 mg/kg intraperitoneal, by eight hours) was “returned to their baseline levels” and the “pYap relative to total Yap in heart, liver and skin” value ([11]; 200 mg/kg intraperitoneal, two or four hours after injection) was “remarkable reduction”. The “pYap in liver, heart and skin” value ([11]; 200, 100 and 50 mg/kg, within 2 h of injection) was “profound reductions of pYap” and the “duration of Lats inhibition in the liver, heart, and skin” value ([11]; injection of 200 mg/kg) was “over 4 h”.
`O=C(/N=c1\sccn1Cc1ccccc1)c1c[nH]c2ncccc12` [TRULI, reference compound] gave an EC50 ([2]; read-out: pYAP EC50) of 586 nM, an HLM activity [3] of 200 and an MLM activity [4] of 303. For the same compound, the “increase in the number of Sox9-positive Müller glia that incorporated EdU” value ([6]; 10 μM, 5-d treatment) was “almost fivefold”, the “mitosis in supporting cells of the organ of Corti” value [12] was “fails to elicit such a response” and the “mitosis in supporting cells of the utricle” value [12] was “robust mitosis”. For the same compound, the “apoptosis by labeling for activated caspase 3” value [10] was “little apoptosis”.
